From patent US12221428B2, “Use of deuterated empathogens as therapeutic agents” (priority 2021, dated 2025)

Columns and labels:
[1] = target: T1, serotonin receptor 2B (HTR2B) (Homo sapiens, UniProt P41595); assay: Calcium No Wash Plus calcium mobilization assay, HTR2B antagonist mode; type: cell-based
T1 construct: expressed in transfected cells
Procedure: Methods—Calcium Mobilization: GPCR activity of serotonin receptor 2B (HTR2B), among others, was measured using the Calcium No Wash^Plus assay, which monitors calcium mobilization in cell lines expressing Gq-coupled GPCRs by loading a calcium-sensitive dye into cells.
Cell lines were expanded from freezer stocks and seeded into multi-well microplates. Then, the plates were incubated at 37° C. for an appropriate amount of time and loaded with Dye Loading buffer. To determine compound agonist activity, cells were incubated with the sample to induce a response, and HBSS/20 mM Hepes was added using a FLIPR Tetra (MDS). Activity was measured on a FLIPR Tetra. Calcium mobilization was monitored for 2 minutes.
To determine compound antagonist activity, cells were pre-incubated with the sample followed by an post-incubation administration of the compound with 3×EC80 agonist using FLIPR. Compound antagonist activity was measured on a FLIPR Tetra (MDS) and calcium mobilization was monitored for 2 minutes.
Compound activity was analyzed using CBIS data analysis suite (ChemInnovation, CA). For agonist mode assays, percentage activity was calculated using the following formula: % Activity=100%×(mean RFU of test sample−mean RFU of vehicle control)/(mean MAX RFU control ligand −mean RFU of vehicle control). […]

DAT = target: T2, DAT (Homo sapiens, UniProt Q01959); assay: Neurotransmitter Transporter Uptake Assay, DAT blocker mode; type: cell-based
T2 construct: expressed in transfected cells

HTR1B = target: T3, HTR1B (Homo sapiens, UniProt P28222); assay: Hit Hunter cAMP assay, HTR1B agonist mode; type: cell-based
T3 construct: expressed in transfected cells
Procedure: Methods—cAMP: Activation of HTR1B and GRM2, among other targets, was determined using the Hit Hunter® cAMP assay. The assay monitors the activation of a GPCR via Gi and Gs secondary messenger signaling, using β-Gal as a functional reporter.
To determine agonistic activity at Gi/Gs, cells were expanded from freezer stocks, seeded into multi-well plates, and incubated at 37° C. prior to addition of a test compound. To determine Gi/Gs agonism, media was aspirated from cells and replaced with 15 μL 2:1 HBSS/10 mM HEPES:cAMP XS+Ab reagent. Concentrated (4×) test compound in assay buffer was added to cells and incubated at 37° C. or room temperature for 30 or 60 minutes. For Gi agonist activation, cells were incubated with EC80 forskolin in addition to a test compound. Vehicle concentration was 1%.
For Gs agonist mode assays, percentage activity was calculated using the following formula: % Activity=100%×(mean RLU of test sample−mean RLU of vehicle control)/(mean RLU of MAX control−mean RLU of vehicle control).
For Gi agonist mode assays, percentage activity was calculated using the following formula: % Activity=100%×(1−(mean RLU of test sample−mean RLU of MAX control)/(mean RLU of vehicle control−mean RLU of MAX control)).

[2] = target: T4, nicotinic acetylcholine receptor nAChR (a4/b2) (Homo sapiens, UniProt P17787+P43681); assay: FLIPR Membrane Potential ion channel assay, nAChR (a4/b2) blocker; type: cell-based; conditions: read-out: EC50/IC50
T4 construct: expressed in transfected cells
Procedure: Methods—Ion Channel Assay: Membrane potential changes were measured using the FLIPR® Membrane potential Assay Kit. A fluorescent indicator dye in combination with a quencher is used to reflect real-time membrane potential changes associated with ion channel activation and ion transporter proteins.
To determine agonist and antagonist activity, cell lines were expanded from freezer stocks, seeded into multi-well microplates, and incubated at 37° C. Cells were then loaded with dye and incubated again.
For agonist determination, cells were incubated with the sample a different dilutions to induce a response. For antagonist determination, cells were pre-incubated with the sample at different dilutions. Following dye administration, the sample was added to the cells in the presence of EC80 agonist and then re-incubated at room temperature in the dark.
Compound activity was analyzed using CBIS data analysis suite (ChemInnovation, CA). For agonist mode assays, percentage activity was calculated using the following formula: % Activity=100%×(mean RLU of test sample−mean RLU of vehicle control)/(mean MAX control ligand−mean RLU of vehicle control).
For antagonist mode assays, percentage inhibition was calculated using the following formula: % Inhibition=100%×(1−(mean RLU of test sample−mean RLU of vehicle control)/(mean RLU of EC80 control−mean RLU of vehicle control)).

NET = target: T5, NET (Homo sapiens, UniProt P23975); assay: Neurotransmitter Transporter Uptake Assay, NET blocker mode; type: cell-based
T5 construct: expressed in transfected cells
Procedure: Methods—Monoamine Transporter Assay: Neurotransmitter uptake via transporters was measured using the Neurotransmitter Transporter Uptake Assay Kit from Molecular Devices. Dopamine, norepinephrine or serotonin transporter activity in cells was detected using a homogeneous fluorescence based assay. Increased intracellular fluorescence intensity following uptake of biogenic amine neurotransmitters via transporters is measured and can be run in a kinetic or endpoint mode.
To determine percentage inhibition of neurotransmitter uptake via transporter, cell lines were expanded from freezer stocks, seeded into a multi-well microplate, and incubated at 37° C. Then, the compound was administered and the mix was incubated again. Following compound incubation, dye was added to the wells and the plate was re-incubated. Microplates were then transferred to a PerkinElmer Envision™ instrument for fluorescence signal detection.
Compound activity was analyzed using CBIS data analysis (ChemInnovation, CA). For blocker mode assays, percentage inhibition was calculated using the following formula: % Inhibition=100%×(1−(mean RLU of test sample−mean RLU of vehicle control)/(mean RLU of positive control−mean RLU of vehicle control)).

[3] = cited from earlier work
[4] = cited from earlier work; remark: listed apart in the source
CYP2D6 = CYP2D6 (Homo sapiens, UniProt P10635); conditions: cited from earlier work
Chain of CYP2D6 (P10635 whole entry): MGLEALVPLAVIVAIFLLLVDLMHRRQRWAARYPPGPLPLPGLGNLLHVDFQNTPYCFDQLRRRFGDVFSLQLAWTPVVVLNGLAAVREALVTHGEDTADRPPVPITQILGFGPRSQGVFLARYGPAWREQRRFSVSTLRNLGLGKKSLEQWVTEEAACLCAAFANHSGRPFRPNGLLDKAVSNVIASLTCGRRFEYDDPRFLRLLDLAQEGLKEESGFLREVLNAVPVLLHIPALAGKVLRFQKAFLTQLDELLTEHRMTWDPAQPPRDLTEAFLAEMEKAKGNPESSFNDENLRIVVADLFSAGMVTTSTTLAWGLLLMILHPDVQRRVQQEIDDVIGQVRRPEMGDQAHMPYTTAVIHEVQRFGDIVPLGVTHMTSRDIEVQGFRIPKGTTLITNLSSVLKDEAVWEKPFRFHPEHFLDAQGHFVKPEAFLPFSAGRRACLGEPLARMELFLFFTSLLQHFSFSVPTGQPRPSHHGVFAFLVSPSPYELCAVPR

T1 sequence (P41595 whole entry, species assumed): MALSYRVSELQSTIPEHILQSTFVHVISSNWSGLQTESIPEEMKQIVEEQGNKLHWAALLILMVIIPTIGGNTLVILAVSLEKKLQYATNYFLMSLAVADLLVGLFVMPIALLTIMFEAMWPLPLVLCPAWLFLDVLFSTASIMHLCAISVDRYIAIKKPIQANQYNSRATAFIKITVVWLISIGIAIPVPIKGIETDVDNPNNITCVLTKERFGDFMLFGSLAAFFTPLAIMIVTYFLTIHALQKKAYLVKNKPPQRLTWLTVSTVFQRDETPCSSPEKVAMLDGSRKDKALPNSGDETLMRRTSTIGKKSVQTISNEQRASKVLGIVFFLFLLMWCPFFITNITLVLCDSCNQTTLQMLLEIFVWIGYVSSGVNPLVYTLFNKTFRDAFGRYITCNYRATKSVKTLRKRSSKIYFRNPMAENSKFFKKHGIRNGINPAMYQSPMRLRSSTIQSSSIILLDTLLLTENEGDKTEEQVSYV
T4 sequence (P43681 29-627 limits assumed): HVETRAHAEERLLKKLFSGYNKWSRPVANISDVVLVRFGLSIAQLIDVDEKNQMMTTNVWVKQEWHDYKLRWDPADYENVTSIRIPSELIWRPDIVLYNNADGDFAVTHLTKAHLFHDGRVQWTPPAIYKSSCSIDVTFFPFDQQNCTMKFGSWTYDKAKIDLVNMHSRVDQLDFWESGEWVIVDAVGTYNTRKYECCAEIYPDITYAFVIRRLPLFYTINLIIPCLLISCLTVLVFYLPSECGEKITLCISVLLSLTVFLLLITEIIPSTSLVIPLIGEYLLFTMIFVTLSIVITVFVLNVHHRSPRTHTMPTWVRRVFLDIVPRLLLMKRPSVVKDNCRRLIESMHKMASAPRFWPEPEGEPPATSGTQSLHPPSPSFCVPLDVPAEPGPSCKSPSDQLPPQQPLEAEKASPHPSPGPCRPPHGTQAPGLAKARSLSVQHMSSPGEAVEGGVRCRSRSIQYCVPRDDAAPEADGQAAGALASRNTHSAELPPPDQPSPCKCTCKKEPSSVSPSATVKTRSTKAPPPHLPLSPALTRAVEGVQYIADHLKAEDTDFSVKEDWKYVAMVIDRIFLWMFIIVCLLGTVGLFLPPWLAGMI
T4 sequence (P17787 26-502): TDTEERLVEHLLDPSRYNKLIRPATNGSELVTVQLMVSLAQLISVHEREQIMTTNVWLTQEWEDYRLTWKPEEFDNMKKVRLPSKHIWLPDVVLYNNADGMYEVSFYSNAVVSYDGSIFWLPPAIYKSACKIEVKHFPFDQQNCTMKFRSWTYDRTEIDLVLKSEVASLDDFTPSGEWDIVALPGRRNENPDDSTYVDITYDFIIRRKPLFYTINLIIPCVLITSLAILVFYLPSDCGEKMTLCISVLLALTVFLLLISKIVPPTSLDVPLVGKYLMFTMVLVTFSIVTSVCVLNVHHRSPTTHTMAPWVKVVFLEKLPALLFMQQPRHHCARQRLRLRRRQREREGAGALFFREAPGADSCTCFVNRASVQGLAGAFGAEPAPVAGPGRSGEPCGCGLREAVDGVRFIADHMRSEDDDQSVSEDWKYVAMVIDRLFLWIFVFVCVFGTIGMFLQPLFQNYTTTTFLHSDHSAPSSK
T5 sequence (P23975 whole entry): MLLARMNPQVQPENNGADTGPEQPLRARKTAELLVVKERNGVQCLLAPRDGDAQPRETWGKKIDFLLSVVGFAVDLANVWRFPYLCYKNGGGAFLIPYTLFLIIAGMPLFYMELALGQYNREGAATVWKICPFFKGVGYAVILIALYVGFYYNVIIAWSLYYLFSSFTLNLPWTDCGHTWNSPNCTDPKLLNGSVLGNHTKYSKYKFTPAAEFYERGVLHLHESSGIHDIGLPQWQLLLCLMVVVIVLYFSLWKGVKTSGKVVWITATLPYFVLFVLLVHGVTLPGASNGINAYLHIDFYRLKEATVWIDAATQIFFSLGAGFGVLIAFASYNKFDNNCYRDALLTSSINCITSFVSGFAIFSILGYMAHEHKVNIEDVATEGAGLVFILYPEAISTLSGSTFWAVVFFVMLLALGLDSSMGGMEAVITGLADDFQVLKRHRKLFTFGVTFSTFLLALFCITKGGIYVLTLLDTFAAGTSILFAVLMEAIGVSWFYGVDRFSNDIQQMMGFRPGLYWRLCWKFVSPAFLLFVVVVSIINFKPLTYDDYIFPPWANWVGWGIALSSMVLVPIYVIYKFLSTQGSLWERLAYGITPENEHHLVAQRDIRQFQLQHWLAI
T2 sequence (Q01959 whole entry, species assumed): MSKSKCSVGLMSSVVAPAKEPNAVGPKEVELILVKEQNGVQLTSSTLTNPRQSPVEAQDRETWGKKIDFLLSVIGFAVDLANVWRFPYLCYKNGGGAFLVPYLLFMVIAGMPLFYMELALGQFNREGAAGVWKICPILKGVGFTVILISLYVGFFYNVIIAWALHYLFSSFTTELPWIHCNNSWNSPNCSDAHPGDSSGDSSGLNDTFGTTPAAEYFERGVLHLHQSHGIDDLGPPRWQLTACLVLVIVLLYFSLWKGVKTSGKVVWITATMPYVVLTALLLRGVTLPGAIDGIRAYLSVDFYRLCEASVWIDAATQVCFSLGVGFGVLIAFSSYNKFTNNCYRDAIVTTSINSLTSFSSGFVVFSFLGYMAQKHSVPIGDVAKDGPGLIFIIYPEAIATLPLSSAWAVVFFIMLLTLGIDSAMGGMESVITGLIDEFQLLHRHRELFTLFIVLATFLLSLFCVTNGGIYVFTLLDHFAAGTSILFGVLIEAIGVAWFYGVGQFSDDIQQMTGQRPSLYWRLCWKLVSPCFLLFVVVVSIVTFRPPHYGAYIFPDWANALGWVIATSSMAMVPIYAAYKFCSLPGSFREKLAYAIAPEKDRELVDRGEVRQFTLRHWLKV
T3 sequence (P28222 whole entry, species assumed): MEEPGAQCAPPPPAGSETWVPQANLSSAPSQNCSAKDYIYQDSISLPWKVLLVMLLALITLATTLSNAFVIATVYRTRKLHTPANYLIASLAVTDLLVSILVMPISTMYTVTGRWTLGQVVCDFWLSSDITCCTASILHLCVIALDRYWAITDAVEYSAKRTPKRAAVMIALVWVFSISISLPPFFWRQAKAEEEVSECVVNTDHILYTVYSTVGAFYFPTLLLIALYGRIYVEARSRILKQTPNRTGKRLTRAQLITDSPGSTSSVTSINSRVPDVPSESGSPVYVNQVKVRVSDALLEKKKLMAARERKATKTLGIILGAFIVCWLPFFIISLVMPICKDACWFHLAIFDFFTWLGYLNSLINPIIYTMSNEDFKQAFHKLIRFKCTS

SMILES | IC50 [1] [µM] | IC50 (DAT) [µM] | EC50 (HTR1B) [µM] | IC50 [2] [µM] | IC50 (NET) [µM] | interoceptive effects ([3]; deuterium substitution at the methylenedioxy ring moiety) | hyperthermic effects ([3]; in vivo) | efficacy in severe PTSD ([4]; MDMA-assisted therapy compared to therapy with inactive placebo) | safety and tolerability ([4]; individuals with severe PTSD, even with comorbidities) | CYP2D6 inhibition (CYP2D6)
[2H]C([2H])([2H])NC(C)Cc1ccc2c(c1)OCO2 (stereo not drawn) [MDMA-d3] | 4.2 | 7.57 | 2.99 | 4.38 | 3.87 | – | – | – | – | –
[2H]C1([2H])Oc2ccc(CC(C)NC)cc2O1 (stereo not drawn) [d2-MDMA] | – | – | – | – | – | does not impact MDMA's interoceptive effects | reduced potential for producing hyperthermic effects | – | – | –
CNC(C)Cc1ccc2c(c1)OCO2 (stereo not drawn) [MDMA, 3,4-methylenedioxymethamphetamine] | 5.34 | 9.84 | 4.71 | 3.19 | 2.49 | – | – | highly efficacious | safe and well-tolerated | inhibit CYP2D6
